Counter-ions that a name gives are not always drawn.
For C[C@H](NC(=O)c1c(CN2CCN(CCO)CC2)c(-c2ccccc2)nc2ccccc12)C1CCCCC1 [Example 29, 3-[4-(2-Hydroxy-ethyl)-piperazin-1-ylmethyl]-2-phenyl-quinoline-4-carboxylic acid ((S)-1-cyclohexyl-ethyl)-amide], which melting point is on record?
Its melting point is 95 to 105 °C.

Which melting point does the source give for COCCN(CCOC)Cc1c(-c2ccccc2)nc2ccccc2c1C(=O)N[C@@H](C)C1CCCCC1 [Example 58, 3-{[Bis-(2-methoxy-ethyl)-amino]-methyl}-2-phenyl-quinoline-4-carboxylic acid ((S)-1-cyclohexyl-ethyl)-amide] here?
The melting point was 114 to 115 °C.

Which melting point does the source give for C[C@H](NC(=O)c1c(CN2CCC(N3CCCCC3)CC2)c(-c2ccccc2)nc2ccccc12)C1CCCCC1 (as salt: hydrochloride) [Example 13, 3-[1,4′]Bipiperidinyl-1′-ylmethyl-2-phenyl-quinoline-4-carboxylic acid ((S)-1-cyclohexyl-ethyl)-amide] here?
The melting point was 180 to 184 °C.

With C[C@H](NC(=O)c1c(CN2CCC(N3CCCCC3)CC2)c(-c2ccccc2)nc2ccccc12)c1ccccc1 (as salt: HCl) [Example 30, 3-[1,4′]Bipiperidinyl-1′-ylmethyl-2-phenyl-quinoline-4-carboxylic acid ((S)-1-phenyl-ethyl)-amide] as the compound, how does the melting point read?
Its melting point is 208 to 210 °C.

Which melting point does the source give for CC[C@H](NC(=O)c1c(CN2CCN(c3ccccn3)CC2)c(-c2ccccc2)nc2ccccc12)c1ccccc1 [Example 56, 2-Phenyl-3-(4-pyridin-2-yl-piperazin-1-ylmethyl)-quinoline-4-carboxylic acid ((S)-1-phenyl-propyl)-amide] here?
Its melting point is 125 to 126 °C.

For CC[C@H](NC(=O)c1c(CN2CCC(N3CCNC3=O)CC2)c(-c2ccccc2)nc2ccccc12)c1ccccc1 [Example 77, 3-[4-(2-Oxo-imidazolidin-1-yl)-piperidin-1-ylmethyl]-2-phenyl-quinoline-4-carboxylic acid ((S)-1-phenyl-propyl)-amide], which melting point is on record?
The melting point was 240 to 242 °C.

Which melting point does the source give for CC(C)[C@H](NC(=O)c1c(CN2CCN(C(=O)CCC(=O)O)CC2)c(-c2ccccc2)nc2ccccc12)c1ccccc1 [Example 85, 4-{4-[4-((S)-2-Methyl-1-phenyl-propylcarbamoyl)-2-phenyl-quinolin-3-ylmethyl]-piperazin-1-yl}-4-oxo-butyric acid] here?
Its melting point is 173 to 175 °C.

With C[C@H](NC(=O)c1c(CN2CCN(CCOCCO)CC2)c(-c2ccccc2)nc2ccccc12)C1CCCCC1 [Example 20, 3-{4-[2-(2-Hydroxy-ethoxy)-ethyl]-piperazin-1-ylmethyl}-2-phenyl-quinoline-4-carboxylic acid ((S)-1-cyclohexyl-ethyl)-amide] as the compound, how does the melting point read?
The melting point was 126 to 128 °C.

With CC[C@H](NC(=O)c1c(CN2CCN(S(=O)(=O)N(C)C)CC2)c(-c2ccccc2)nc2ccccc12)c1ccccc1 [Example 91, 3-(4-Dimethylsulfamoyl-piperazin-1-ylmethyl)-2-phenyl-quinoline-4-carboxylic acid ((S)-1-phenyl-propyl)-amide] as the compound, how does the melting point read?
Its melting point is 107 to 111 °C (dec.).

For CC[C@H](NC(=O)c1c(CN2CCC(N3CCCCC3)CC2)c(-c2ccccc2)nc2cc(OC)ccc12)c1ccccc1 (as salt: hydrochloride) [Example 67, 3-[1,4′]Bipiperidinyl-1′-ylmethyl-7-methoxy-2-phenyl-quinoline-4-carboxylic acid ((S)-1-phenyl-propyl)-amide], which melting point is on record?
Its melting point is 208 to 210 °C.

For C[C@H](NC(=O)c1c(CN2CCN(C(=O)c3ccccc3C(=O)O)CC2)c(-c2ccccc2)nc2ccccc12)C1CCCCC1 [Example 87, 2-(1-{4-[4-((S)-1-Cyclohexyl-ethylcarbamoyl)-2-phenyl-quinolin-3-ylmethyl]-piperazin-1-yl}-methanoyl)-benzoic acid], which melting point is on record?
Its melting point is 209 to 211 °C.

Which melting point does the source give for C[C@H](NC(=O)c1c(CN2CCC(n3c(=O)[nH]c4ccccc43)CC2)c(-c2ccccc2)nc2ccccc12)C1CCCCC1 here?
The melting point was 204 to 206 °C.

With CC[C@H](NC(=O)c1c(CN2CCC(N3CCOCC3)CC2)c(-c2ccccc2)nc2ccccc12)c1ccccc1 [Example 19, 3-(4-Morpholin-4-yl-piperidin-1-ylmethyl)-2-phenyl-quinoline-4-carboxylic acid ((S)-1-phenyl-propyl)-amide] as the compound, how does the melting point read?
The melting point was 157 to 165 °C.

For C[C@H](NC(=O)c1c(CN2CCN(c3c(N4CCCC4)c(=O)c3=O)CC2)c(-c2ccccc2)nc2ccccc12)C1CCCCC1 [Example 72, 3-[4-(3,4-Dioxo-2-pyrrolidin-1-yl-cyclobut-1-enyl)-piperazin-1-ylmethyl]-2-phenyl-quinoline-4-carboxylic acid ((S)-1-cyclohexyl-ethyl)-amide], which melting point is on record?
Its melting point is 170 to 180 °C.

Which melting point does the source give for CC[C@H](NC(=O)c1c(CN2CCC(N3CCC(O)CC3)CC2)c(-c2ccccc2)nc2ccccc12)c1ccccc1 [Example 18, 3-(4-Hydroxy-[1,4′]bipiperidinyl-1′-ylmethyl)-2-phenyl-quinoline-4-carboxylic acid ((S)-1-phenyl-propyl)-amide] here?
Its melting point is 166 to 168 °C.

Which melting point does the source give for C[C@H](NC(=O)c1c(CN2CCOCC2)c(-c2ccccc2)nc2ccccc12)C1CCCCC1 [Example 54, 3-Morpholin-4-ylmethyl-2-phenyl-quinoline-4-carboxylic acid ((S)-1-cyclohexyl-ethyl)-amide] here?
The melting point was 178 to 180 °C.

With C[C@H](NC(=O)c1c(CN2CCN(c3ccccn3)CC2)c(-c2ccccc2)nc2ccccc12)C1CCCCC1 [Example 59, 2-Phenyl-3-(4-pyridin-2-yl-piperazin-1-ylmethyl)-quinoline-4-carboxylic acid ((S)-1-cyclohexyl-ethyl)-amide] as the compound, how does the melting point read?
Its melting point is 152 to 154 °C.

With C[C@H](NC(=O)c1c(CN2CCN(C(=O)CN(C)C)CC2)c(-c2ccccc2)nc2ccccc12)C1CCCCC1 [Example 46, 3-[4-(2-Dimethylamino-ethanoyl)-piperazin-1-ylmethyl]-2-phenyl-quinoline-4-carboxylic acid ((S)-1-cyclohexyl-ethyl)-amide] as the compound, how does the melting point read?
The melting point was 173 to 175 °C.

With CC[C@H](NC(=O)c1c(CN2CCN(CCO)CC2)c(-c2ccccc2)nc2ccccc12)c1ccccc1 [Example 28, 3-[4-(2-Hydroxy-ethyl)-piperazin-1-ylmethyl]-2-phenyl-quinoline-4-carboxylic acid ((S)-1-phenyl-propyl)-amide] as the compound, how does the melting point read?
The melting point was 142 to 144 °C.

Which melting point does the source give for CCN1CCN(Cc2c(-c3ccccc3)nc3ccccc3c2C(=O)N[C@@H](C)C2CCCCC2)CC1 (as salt: HCl) [Example 37, 3-(4-Ethyl-piperazin-1-ylmethyl)-2-phenyl-quinoline-4-carboxylic acid ((S)-1-cyclohexyl-ethyl)-amide] here?
The melting point was 188 to 190 °C.

For C[C@H](NC(=O)c1c(CN2CCN(CC(=O)O)CC2)c(-c2ccccc2)nc2ccccc12)C1CCCCC1 [Example 92, {4-[4-((S)-1-Cyclohexyl-ethylcarbamoyl)-2-phenyl-quinolin-3-ylmethyl]-piperazin-1-yl}-acetic acid], which melting point is on record?
The melting point was 188 to 195 °C.

For C[C@H](NC(=O)c1c(CN2CCN(Cc3ccccc3)CC2)c(-c2ccccc2)nc2ccccc12)C1CCCCC1 (as salt: HCl), which melting point is on record?
The melting point was 176 to 179 °C.

For CC[C@H](NC(=O)c1c(CN2CCC(N3CCCCC3)CC2)c(-c2ccccc2)nc2c(Br)c(OC)ccc12)c1ccccc1 [Example 66, 3-[1,4′]Bipiperidinyl-1′-ylmethyl-8-bromo-7-methoxy-2-phenyl-quinoline-4-carboxylic acid ((S)-1-phenyl-propyl)-amide], which melting point is on record?
The melting point was 156 to 160 °C.

Which melting point does the source give for CC[C@H](NC(=O)c1c(CN2CCN3CCCC3C2)c(-c2ccccc2)nc2ccccc12)c1ccccc1 (stereo partly drawn) (as salt: HCl) [Example 49, 3-(Hexahydro-pyrrolo[1,2-a]pyrazin-2-ylmethyl)-2-phenyl-quinoline-4-carboxylic acid ((S)-1-phenyl-propyl)-amide] here?
The melting point was 196 to 198 °C.

With CC[C@H](NC(=O)c1c(CN2CCN(CCOCCO)CC2)c(-c2ccccc2)nc2ccccc12)c1ccccc1 [Example 15, 3-{4-[2-(2-Hydroxy-ethoxy)-ethyl]-piperazin-1-ylmethyl}-2-phenyl-quinoline-4-carboxylic acid ((S)-1-phenyl-propyl)-amide] as the compound, how does the melting point read?
The melting point was 158 to 160 °C.

With CC[C@H](NC(=O)c1c(CN2CCC3(CC2)C(=O)NCN3c2ccccc2)c(-c2ccccc2)nc2ccccc12)c1ccccc1 as the compound, how does the melting point read?
The melting point was 242 to 245 °C.

For CCN(CC)CCC(=O)N1CCN(Cc2c(-c3ccccc3)nc3ccccc3c2C(=O)N[C@H](c2ccccc2)C(C)C)CC1 [Example 80, 3-[4-(3-Diethylamino-propanoyl)-piperazin-1-ylmethyl]-2-phenyl-quinoline-4-carboxylic acid ((S)-2-methyl-1-phenyl-propyl)-amide], which melting point is on record?
Its melting point is 120 to 125 °C.

With C[C@H](NC(=O)c1c(CN2CCN(C(=NS(C)(=O)=O)N3CCCC3)CC2)c(-c2ccccc2)nc2ccccc12)C1CCCCC1 [Example 84, 3-[4-(1-Methanesulfonylimino-1-pyrrolidin-1-yl-methyl)-piperazin-1-ylmethyl]-2-phenyl-quinoline-4-carboxylic acid ((S)-1-cyclohexyl-ethyl)-amide] as the compound, how does the melting point read?
Its melting point is 130 to 140 °C.

For C[C@H](NC(=O)c1c(CN2CCN(C(=O)c3ccccc3)CC2)c(-c2ccccc2)nc2ccccc12)C1CCCCC1 [Example 24, 2-Phenyl-3-[4-(1-phenyl-methanoyl)-piperazin-1-ylmethyl]-quinoline-4-carboxylic acid ((S)-1-cyclohexyl-ethyl)-amide], which melting point is on record?
The melting point was 150 to 152 °C.

With CC[C@H](NC(=O)c1c(CN2CCN(C3CCCCC3)CC2)c(-c2ccccc2)nc2ccccc12)c1ccccc1 (as salt: HCl) [Example 1, 3-(4-Cyclohexyl-piperazin-1-ylmethyl)-2-phenyl-quinoline-4-carboxylic acid ((S)-1-phenyl-propyl)-amide] as the compound, how does the melting point read?
The melting point was 261 to 263 °C.

Which melting point does the source give for CC[C@H](NC(=O)c1c(CN2CCC3(CC2)CNC(=O)C3)c(-c2ccccc2)nc2ccccc12)c1ccccc1 [Example 63, 3-(3-Oxo-2,8-diaza-spiro[4.5]dec-8-ylmethyl)-2-phenyl-quinoline-4-carboxylic acid ((S)-1-phenyl-propyl)-amide] here?
The melting point was 129 to 131 °C.

Reference: patent publication US6780875B2, “Quinoline-4-carboxamide derivatives as NK-3 and NK-2 receptor antagonists” (SmithKline Beecham S.p.A., priority 1998, dated 2004)
